Assay results taken from patent US20240360134A1, “PYRAZOLOPYRIMIDINES AND THEIR USES AS PDGFR INHIBITORS” (priority 2021, published 2024).

How the values were obtained:
[1] = target: His6-TEV-PDGFRβ (557-1016) (Homo sapiens (Human), UniProt P09619); assay: PDGFRβ HTRF Assay; type: biochemical; conditions: 800 μM ATP, 0.5 μM TK-substrate biotin peptide, 30 min pre-incubation, 3 hours reaction; read-out: PDGFR HTRF IC50
VEGFR2, unphosphorylated = VEGFR2, unphosphorylated (Homo sapiens (Human), UniProt P35968); assay: VEGFR ADP GLO assay; type: biochemical; conditions: 5 nM VEGFR2, 1.2 mM ATP, 1 mg/mL Srctide, 180 min
Chain of VEGFR2, unphosphorylated (P35968 whole entry, looked up): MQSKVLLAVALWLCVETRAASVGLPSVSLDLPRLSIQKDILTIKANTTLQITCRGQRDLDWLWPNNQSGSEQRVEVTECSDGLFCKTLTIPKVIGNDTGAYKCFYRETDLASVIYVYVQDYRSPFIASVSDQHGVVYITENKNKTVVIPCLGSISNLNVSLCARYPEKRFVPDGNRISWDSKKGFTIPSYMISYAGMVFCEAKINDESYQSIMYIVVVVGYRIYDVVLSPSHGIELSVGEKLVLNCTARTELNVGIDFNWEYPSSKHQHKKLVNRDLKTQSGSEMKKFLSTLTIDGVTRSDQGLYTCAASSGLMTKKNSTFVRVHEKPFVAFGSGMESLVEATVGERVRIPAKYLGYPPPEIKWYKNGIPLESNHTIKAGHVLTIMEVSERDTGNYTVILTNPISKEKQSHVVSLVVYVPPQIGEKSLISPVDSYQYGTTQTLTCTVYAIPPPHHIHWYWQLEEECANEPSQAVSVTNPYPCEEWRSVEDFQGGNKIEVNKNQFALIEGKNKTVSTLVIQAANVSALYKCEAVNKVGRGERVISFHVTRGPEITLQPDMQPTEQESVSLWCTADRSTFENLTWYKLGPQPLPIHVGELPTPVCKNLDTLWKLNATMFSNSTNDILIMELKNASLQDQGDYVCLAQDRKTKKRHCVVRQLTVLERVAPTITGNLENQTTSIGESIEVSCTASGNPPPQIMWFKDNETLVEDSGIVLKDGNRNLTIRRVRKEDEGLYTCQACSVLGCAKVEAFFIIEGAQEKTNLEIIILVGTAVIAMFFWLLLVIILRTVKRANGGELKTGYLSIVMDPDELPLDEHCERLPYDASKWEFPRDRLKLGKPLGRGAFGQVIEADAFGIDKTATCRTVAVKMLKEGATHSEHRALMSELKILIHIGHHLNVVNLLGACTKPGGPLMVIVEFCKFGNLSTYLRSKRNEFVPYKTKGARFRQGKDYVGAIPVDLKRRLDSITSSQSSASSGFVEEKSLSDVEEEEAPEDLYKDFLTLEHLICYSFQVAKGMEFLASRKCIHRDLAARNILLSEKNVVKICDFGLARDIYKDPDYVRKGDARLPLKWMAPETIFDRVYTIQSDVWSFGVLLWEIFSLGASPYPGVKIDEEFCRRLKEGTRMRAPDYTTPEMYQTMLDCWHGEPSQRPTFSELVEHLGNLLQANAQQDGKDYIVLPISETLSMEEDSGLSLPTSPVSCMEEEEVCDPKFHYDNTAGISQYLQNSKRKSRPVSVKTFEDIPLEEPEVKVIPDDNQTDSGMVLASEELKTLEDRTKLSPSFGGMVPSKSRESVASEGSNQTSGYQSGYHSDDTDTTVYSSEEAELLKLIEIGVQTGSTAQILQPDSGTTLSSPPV
How it was run: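 Luminescent ADP detection after a 180-min room-temperature reaction of srctide plus ATP (2 mg/mL and 2.4 mM in 2× mix) in pH 7.5 HEPES buffer with DTT, Pluronic and ovalbumin. Compounds, 11 points from 10 µM, first pre-incubated 30 min with enzyme (2× mix 10 nM). IC50s fitted after scaling between DMSO and 1 µM TAK-593 controls.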

[2] = target: Tb-labeled inactive PDGFRβ (Homo sapiens (Human), UniProt P09619); assay: biochemical; type: binding; conditions: read-out: PDGFR Lantha IC50
Chain of Tb-labeled inactive PDGFRβ (P09619 whole entry, looked up): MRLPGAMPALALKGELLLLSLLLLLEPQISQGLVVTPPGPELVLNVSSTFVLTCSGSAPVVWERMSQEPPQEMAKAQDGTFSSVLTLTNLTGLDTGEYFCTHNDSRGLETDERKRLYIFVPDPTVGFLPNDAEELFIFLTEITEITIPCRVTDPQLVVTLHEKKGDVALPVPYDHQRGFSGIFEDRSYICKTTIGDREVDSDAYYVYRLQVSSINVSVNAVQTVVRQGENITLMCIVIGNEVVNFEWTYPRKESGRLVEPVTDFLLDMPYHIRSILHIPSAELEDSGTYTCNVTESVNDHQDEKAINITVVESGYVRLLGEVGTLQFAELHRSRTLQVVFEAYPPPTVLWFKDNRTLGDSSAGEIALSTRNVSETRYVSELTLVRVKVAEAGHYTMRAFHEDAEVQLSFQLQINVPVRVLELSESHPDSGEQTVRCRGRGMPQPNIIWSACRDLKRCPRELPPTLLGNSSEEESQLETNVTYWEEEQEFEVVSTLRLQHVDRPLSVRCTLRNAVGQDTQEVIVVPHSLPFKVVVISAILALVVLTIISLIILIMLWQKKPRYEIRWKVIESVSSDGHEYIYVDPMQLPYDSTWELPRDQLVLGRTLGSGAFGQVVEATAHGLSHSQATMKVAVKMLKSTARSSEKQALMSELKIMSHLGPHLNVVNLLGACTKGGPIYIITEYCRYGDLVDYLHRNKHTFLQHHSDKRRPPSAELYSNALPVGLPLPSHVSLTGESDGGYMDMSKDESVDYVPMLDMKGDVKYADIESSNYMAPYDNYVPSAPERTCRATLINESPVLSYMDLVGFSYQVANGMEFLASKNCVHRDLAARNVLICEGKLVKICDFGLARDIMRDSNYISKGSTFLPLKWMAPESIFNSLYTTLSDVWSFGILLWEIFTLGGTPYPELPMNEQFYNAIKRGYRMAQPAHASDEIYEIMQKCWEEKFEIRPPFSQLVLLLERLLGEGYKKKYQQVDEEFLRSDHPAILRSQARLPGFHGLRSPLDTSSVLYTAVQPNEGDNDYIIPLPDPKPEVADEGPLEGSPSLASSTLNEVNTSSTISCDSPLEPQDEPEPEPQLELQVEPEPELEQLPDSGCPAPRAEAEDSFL

PDGFRβ = PDGFRβ (Rattus norvegicus (Rat), UniProt Q05030); assay: PDGFRβ Cellular Assay (PDGFRb P-Y751 HTRF, PDGF-BB stimulated A10 cells); type: cell-based; conditions: A10 cells, 3 hours compound, 15 ng/mL PDGFbb for 10 minutes; read-out: PDGFR Cellular IC50
Chain of PDGFRβ (Q05030 whole entry, looked up): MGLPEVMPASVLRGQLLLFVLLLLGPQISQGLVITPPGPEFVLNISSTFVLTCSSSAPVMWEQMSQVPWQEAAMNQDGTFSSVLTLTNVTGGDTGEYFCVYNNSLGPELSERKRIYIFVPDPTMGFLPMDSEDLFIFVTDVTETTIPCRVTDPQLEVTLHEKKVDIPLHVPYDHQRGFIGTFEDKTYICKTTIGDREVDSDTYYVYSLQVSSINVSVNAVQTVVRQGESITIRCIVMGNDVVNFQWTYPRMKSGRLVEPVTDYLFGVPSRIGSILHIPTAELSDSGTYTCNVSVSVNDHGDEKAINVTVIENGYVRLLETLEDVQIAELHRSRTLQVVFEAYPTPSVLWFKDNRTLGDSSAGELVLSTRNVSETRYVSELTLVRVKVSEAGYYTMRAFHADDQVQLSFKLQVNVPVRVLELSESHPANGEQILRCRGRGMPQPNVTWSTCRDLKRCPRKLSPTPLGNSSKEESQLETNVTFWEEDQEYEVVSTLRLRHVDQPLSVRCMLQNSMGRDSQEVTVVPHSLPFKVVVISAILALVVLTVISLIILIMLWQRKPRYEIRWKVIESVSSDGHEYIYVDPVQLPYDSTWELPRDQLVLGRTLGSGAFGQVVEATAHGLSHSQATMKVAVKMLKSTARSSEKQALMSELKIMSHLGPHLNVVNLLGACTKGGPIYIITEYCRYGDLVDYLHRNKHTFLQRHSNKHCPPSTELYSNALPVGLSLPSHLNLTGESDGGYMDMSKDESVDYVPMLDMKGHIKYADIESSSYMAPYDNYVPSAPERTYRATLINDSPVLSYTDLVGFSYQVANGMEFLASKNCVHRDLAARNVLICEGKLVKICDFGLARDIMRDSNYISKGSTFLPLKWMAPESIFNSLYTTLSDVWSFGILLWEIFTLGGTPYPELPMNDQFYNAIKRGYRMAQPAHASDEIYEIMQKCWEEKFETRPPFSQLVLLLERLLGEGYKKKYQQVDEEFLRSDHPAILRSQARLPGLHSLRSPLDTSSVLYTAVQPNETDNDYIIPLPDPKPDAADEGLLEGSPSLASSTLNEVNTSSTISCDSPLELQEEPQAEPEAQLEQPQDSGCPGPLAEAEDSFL
How it was run: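 Rat A10 cells plated overnight were treated with compound for 3 h, stimulated with rat PDGF-BB (working stock 100 ng/mL in 10% FBS medium) for 10 min, then lysed.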

Chain of His6-TEV-PDGFRβ (557-1016) (P09619 whole entry, looked up): as the sequence (P09619 whole entry, looked up) above

## Cc1ncc(C(=O)NCCN2CCC[C@@H]2C)cc1Nc1nn(C)c2nc(Nc3cncnc3)ncc12 [Example 3, (S)-6-methyl-5-((1-methyl-6-(pyrimidin-5-ylamino)-1H-pyrazolo [3,4-d]pyrimidin-3-yl)amino)-N-(2-(2-methylpyrrolidin-1-yl)ethyl)nicotinamide]
[1]
  IC50: 0.68 nM
VEGFR2, unphosphorylated
  IC50: > 7500 nM
[2]
  IC50: 6.8 nM
PDGFRβ
  IC50: 113 nM

## Cc1ncc(C(=O)NCCN2CCCC2(C)C)cc1Nc1nn(C)c2nc(Nc3ccncc3)ncc12 [Example 28, N-(2-(2,2-dimethylpyrrolidin-1-yl)ethyl)-6-methyl-5-((1-methyl-6-(pyridin-4-ylamino)-1H-pyrazolo[3,4-d]pyrimidin-3-yl)amino)nicotinamide]
[1]
  IC50: 0.5 nM
VEGFR2, unphosphorylated
  IC50: ~9180 nM
[2]
  IC50: 3.8 nM
PDGFRβ
  IC50: 39.4 nM

## Cc1ncc(C(=O)NCCN2CCOCC23CC3)cc1Nc1nn(C)c2nc(Nc3cncnc3)ncc12 [Example 13, N-(2-(7-oxa-4-azaspiro[2.5]octan-4-yl)ethyl)-6-methyl-5-((1-methyl-6-(pyrimidin-5-ylamino)-1H-pyrazolo[3,4-d]pyrimidin-3-yl)amino)nicotinamide]
[1]
  IC50: 1.55 nM
VEGFR2, unphosphorylated
  IC50: > 7500 nM
[2]
  IC50: 12.8 nM
PDGFRβ
  IC50: 152 nM

## Cc1ncc(C(=O)NCCN2CCCC23CCC3)cc1Nc1nn(C)c2nc(Nc3cncnc3)ncc12 [Example 4, N-(2-(5-azaspiro[3.4]octan-5-yl)ethyl)-6-methyl-5-((1-methyl-6-(pyrimidin-5-ylamino)-1H-pyrazolo[3,4-d]pyrimidin-3-yl)amino)nicotinamide]
[1]
  IC50: 0.46 nM
VEGFR2, unphosphorylated
  IC50: > 7500 nM
[2]
  IC50: 3.2 nM
PDGFRβ
  IC50: 14.5 nM

## Cc1ncc(C(=O)NCCN2C[C@@H](C)O[C@@H](C)C2)cc1Nc1nn(C)c2nc(Nc3cnn(C)c3)ncc12 [Example 91, N-(2-(cis-2,6-dimethylmorpholino)ethyl)-6-methyl-5-((1-methyl-6-((1-methyl-1H-pyrazol-4-yl)amino)-1H-pyrazolo[3,4-d]pyrimidin-3-yl)amino)nicotinamide]
[1]
  IC50: 0.46 nM
VEGFR2, unphosphorylated
  IC50: > 7500 nM
[2]
  IC50: 4.2 nM
PDGFRβ
  IC50: 44.3 nM

## Cc1ncc(C(=O)NCCN2CCCC2(C)C)cc1Nc1nn(C)c2nc(Nc3cccc(CC(=O)O)c3)ncc12 [Example 44, 2-(3-((3-((5-((2-(2,2-dimethylpyrrolidin-1-yl)ethyl)carbamoyl)-2-methylpyridin-3-yl)amino)-1-methyl-1H-pyrazolo[3,4-d]pyrimidin-6-yl)amino)phenyl)-acetic acid]
[1]
  IC50: 1.54 nM
VEGFR2, unphosphorylated
  IC50: 2190 nM
[2]
  IC50: 9.7 nM
PDGFRβ
  IC50: 2660 nM

## Cn1cc(Nc2ncc3c(Nc4cc(C(=O)NCCN5CCCC5(C)C)ccc4F)nn(C)c3n2)cn1 [Example 121, N-(2-(2,2-dimethylpyrrolidin-1-yl)ethyl)-4-fluoro-3-((1-methyl-6-((1-methyl-1H-pyrazol-4-yl)amino)-1H-pyrazolo[3,4-d]pyrimidin-3-yl)amino)benzamide]
[1]
  IC50: 0.2 nM
VEGFR2, unphosphorylated
  IC50: > 7500 nM
[2]
  IC50: 1.3 nM
PDGFRβ
  IC50: 3.6 nM

## Cc1ncc(C(=O)NCCN2CCCOCC2)cc1Nc1nn(C)c2nc(Nc3cnn(C)c3)ncc12 [Example 17, N-(2-(1,4-oxazepan-4-yl)ethyl)-6-methyl-5-((1-methyl-6-((1-methyl-1H-pyrazol-4-yl)amino)-1H-pyrazolo[3,4-d]pyrimidin-3-yl)amino)nicotinamide]
[1]
  IC50: 0.48 nM
VEGFR2, unphosphorylated
  IC50: ~6990 nM
[2]
  IC50: 2.9 nM
PDGFRβ
  IC50: 68.3 nM

## Cc1ncc(C(=O)NCCN2[C@H](C)CCC[C@@H]2C)cc1Nc1nn(C)c2nc(Nc3cncnc3)ncc12 [Example 14, N-(2-((2S,6R)-2,6-dimethylpiperidin-1-yl)ethyl)-6-methyl-5-((1-methyl-6-(pyrimidin-5-ylamino)-1H-pyrazolo[3,4-d]pyrimidin-3-yl)amino)nicotinamide]
[1]
  IC50: 0.89 nM
VEGFR2, unphosphorylated
  IC50: ~7130 nM
[2]
  IC50: 8.5 nM
PDGFRβ
  IC50: 109 nM

## Cc1ncc(C(=O)NCCN2CCCC2(C)C)cc1Nc1nn(C)c2cc(Nc3cnn(C)c3)ncc12 [Example 69, N-(2-(2,2-dimethylpyrrolidin-1-yl)ethyl)-6-methyl-5-((1-methyl-6-((1-methyl-1H-pyrazol-4-yl)amino)-1H-pyrazolo[4,3-c]pyridin-3-yl)amino)nicotinamide]
[1]
  IC50: 1.27 nM
VEGFR2, unphosphorylated
  IC50: > 7500 nM
[2]
  IC50: 48.4 nM
PDGFRβ
  IC50: 36.9 nM

## C[C@H]1CCCN1CCNC(=O)c1ccc(F)c(Nc2nn(C)c3nc(Nc4cnn(C)c4)ncc23)c1 [Example 119, (S)-4-fluoro-3-((1-methyl-6-((1-methyl-1H-pyrazol-4-yl)amino)-1H-pyrazolo[3,4-d]pyrimidin-3-yl)amino)-N-(2-(2-methylpyrrolidin-1-yl)ethyl)benzamide]
[1]
  IC50: 0.13 nM
VEGFR2, unphosphorylated
  IC50: 6600 nM
[2]
  IC50: 1.4 nM
PDGFRβ
  IC50: 5.8 nM

## CC[C@@H]1CN(CCNC(=O)c2cnc(C)c(Nc3nn(C)c4nc(Nc5cnn(C)c5)ncc34)c2)CCO1 [Example 88, (R)—N-(2-(2-ethylmorpholino)ethyl)-6-methyl-5-((1-methyl-6-((1-methyl-1H-pyrazol-4-yl)amino)-1H-pyrazolo[3,4-d]pyrimidin-3-yl)amino)nicotinamide]
[1]
  IC50: 0.35 nM
VEGFR2, unphosphorylated
  IC50: > 7500 nM
[2]
  IC50: 3 nM
PDGFRβ
  IC50: 22.3 nM

## Cn1nc(Nc2cc(C(=O)NCCN3CCCC3(C)C)ccc2F)c2cnc(Nc3ccncn3)nc21 [Example 52, N-(2-(2,2-dimethylpyrrolidin-1-yl)ethyl)-4-fluoro-3-((1-methyl-6-(pyrimidin-4-ylamino)-1H-pyrazolo[3,4-d]pyrimidin-3-yl)amino)benzamide]
[1]
  IC50: 4.71 nM
VEGFR2, unphosphorylated
  IC50: > 2500 nM
[2]
  IC50: 160 nM
PDGFRβ
  IC50: 67 nM

## Cc1ncc(C(=O)NCCN2[C@H](C)COC[C@H]2C)cc1Nc1nn(C)c2nc(Nc3cnn(C)c3)ncc12 (relative stereo) [Example 94, N-(2-(trans-3,5-dimethylmorpholino)ethyl)-6-methyl-5-((1-methyl-6-((1-methyl-1H-pyrazol-4-yl)amino)-1H-pyrazolo[3,4-d]pyrimidin-3-yl)amino)nicotinamide]
[1]
  IC50: 0.33 nM
VEGFR2, unphosphorylated
  IC50: 1170 nM
[2]
  IC50: 2.1 nM
PDGFRβ
  IC50: 13.9 nM

## Cc1ncc(C(=O)NCCN2CCCC2(C)C)cc1Nc1nn(C)c2nc(Nc3cncnc3)ncc12 [Example 27, N-(2-(2,2-dimethylpyrrolidin-1-yl)ethyl)-6-methyl-5-((1-methyl-6-(pyrimidin-5-ylamino)-1H-pyrazolo[3,4-d]pyrimidin-3-yl)amino)nicotinamide]
[1]
  IC50: 0.7 nM
VEGFR2, unphosphorylated
  IC50: > 10000 nM
[2]
  IC50: 4 nM
PDGFRβ
  IC50: 31.2 nM

## Cc1ncc(NC(=O)CN2CC(C)(C)C2)cc1Nc1nn(C)c2nc(Nc3cnn(C)c3)ncc12 [Example 77, 2-(3,3-dimethylazetidin-1-yl)-N-(6-methyl-5-((1-methyl-6-((1-methyl-1H-pyrazol-4-yl)amino)-1H-pyrazolo[3,4-d]pyrimidin-3-yl)amino)pyridin-3-yl)acetamide]
[1]
  IC50: 0.24 nM
VEGFR2, unphosphorylated
  IC50: 5110 nM
[2]
  IC50: 1.9 nM
PDGFRβ
  IC50: 2.4 nM

## Cc1ncc(C(=O)NCCN2C3CCCC2CCC3)cc1Nc1nn(C)c2nc(Nc3cnn(C)c3)ncc12 [Example 89, N-(2-(9-azabicyclo[3.3.1]nonan-9-yl)ethyl)-6-methyl-5-((1-methyl-6-((1-methyl-1H-pyrazol-4-yl)amino)-1H-pyrazolo[3,4-d]pyrimidin-3-yl)amino)nicotinamide]
[1]
  IC50: 0.33 nM
VEGFR2, unphosphorylated
  IC50: 4090 nM
[2]
  IC50: 2.8 nM
PDGFRβ
  IC50: 33.3 nM
